The test system of series [1] is HeLa cells. Put plainly: Cell viability / cytotoxicity evaluated by MTT assay. It counts as cell-based. The protocol:
For cell culturing, HeLa cells were cultured in the MEM containing 10% FBS and antibiotics (100 units/mL penicillin and 100 µg/mL streptomycin) in a humidity incubator with an atmosphere of 5% CO2 at 37° C. and subcultured every 2-3 days.
For cell viability evaluated by MTT assay, cells were seeded in 96-well plates at a density of 10000 cells per well. After 24 h incubation, medium in each well was replaced by 100 μL fresh medium containing different concentrations of AIE-SRS-Mito. After 24 hours of treatment, into each well, 10 μL MTT solution (5 mg/mL in PBS) was added. After 4 hours of incubation, the MTT-containing solution was gently removed and replaced with 100 μL of DMSO. After agitation, the absorption of each well at 490 nm was recorded via a plate reader (Perkin-Elmer Victor3™). Each of the experiments were performed for 6 wells parallel. The background of the blank was subtracted and the cell viability of the control group was set to unity.
Cell cytotoxicity was evaluated by MTT assay (FIG. 4E). HeLa cells were incubated with different concentrations of AIE-SRS-Mito for 24 hours. For example, HeLa cells were incubated with different concentrations of AIE-SRS-Mito for 20 or 40 min and then the medium was replaced with fresh medium, followed by further incubation for 24 hours.
A general note: Tetrazolium assays rely on reduction of a dye to a coloured formazan, in cell work by metabolically active cells.

The subject of series [2] is HeLa cells. Put plainly: Fluorescence cell imaging and co-localization with Mitotracker Red FM. The series is classed as cell-based. Particulars: 20 min. The protocol:
For cell imaging, HeLa cells were grown overnight on a 35-mm petri dish with a cover slip. The cover slip was mounted to an iron slide with observation window. The staining solution was prepared by adding the dye stock solution (10 mM in DMSO) in to 2 mL of cell medium. Before imaging, the cells were stained with 2 mL of dye solution for a certain time and then imaged under an FL microscope (BX41 upright Microscope) using different combinations of excitation and emission filters for each dye.
To verify the mitochondrial specificity of AIE-SRS-Mito, cellular imaging was first conducted by incubating HeLa cells with 5 μM AIE-SRS-Mito for 20 min.
A co-localization experiment was then conducted using AIE-SRS-Mito and a commercial mitochondrial probe, Mitotacker Red (MTR) FM. The excitation wavelength was 330-385 nm for AIE-SRS-Mito and 540-580 nm for MTR. As shown in FIGS. 4A-4D, AIE-SRS-Mito stained the linear reticulum-like structures in cells with high contrast.

Series [3] has as its system HeLa cells. As to the kind of experiment: FL-SRS imaging: intracellular dye concentration from SRS intensity (ISRS=0.1567c). To be noted: for percentage of high concentration region (>0.5 mM) / ultimate high concentration within the cells: 20 μM; for ultimate high concentration within the cells: covering >99.5% cell area. The series is classed as cell-based. From the text:
To eliminate the influence of light reflection and scattering on the baseline, SRS intensity ION at 2223 cm^−1 (resonance-on) and IOFF at 2160 cm^−1 (resonance-off) was used to calculate the SRS signal intensity ISRS=ION−IOFF. After subtracting the intrinsic ISRS=0.042 V in pure DMSO (background), a linear relationship between SRS intensity ISRS and the dye concentration c was obtained as ISRS=0.1567c with R^2=0.99944 in the plot shown in FIG. 5B. The analytical detection limit and quantification limit were calculated to be 8.5 μM and 28.4 μM, respectively, indicating the high sensitivity of the SRS system. Further, the SRS spectra of AIE-SRS-Mito were collected at different concentrations in DMSO and no obvious shifts in the peak position was found, indicating the inertness of Raman signal to the concentration change. Due to the inert response of SRS signal to the change of environment, the linear plot of ISRS=0.1567c can act further as a calibration for the intracellular dye concentration by keeping the same signal collecting condition.
At first, as shown in FIGS. 9A-9D, images of HeLa cells were collected by TPEF and SRS signals, respectively, and the merged image indicated a perfect co-localization of the intracellular distribution of the fluorescence and SRS signals, confirming the dual-modality of the probe. […] Due to the inertness of SRS signal and the linear relationship (ISRS=0.1567 c), the distribution of the dye concentration inside a single cell was further analyzed.
To examine the influence of intracellular concentration of AIE-SRS-Mito on the cells, attempts were made to increase the amounts of dye in the cells by increasing the incubation time. As shown in FIGS. 11A-11F, with the extension of incubation time, both the TPEF and SRS intensity were increased with a reduced mitochondrial selectivity. […] This can be attributed to the fact that the high concentration of cationic dyes in the mitochondria matrix will cause depolarization and increase the osmotic stress of the mitochondria, consequently leading to cell death as indicated by the results of the MTT assay (FIG. 4E). Similar results were found when increasing the dye concentration (FIGS. 12A-12F).
To further study acceptable intracellular concentrations of the dye molecules in a cell, the distribution of the dye concentration for cells was plotted. The percentages of high concentration region (>0.5 mM) were calculated to be 16.7%, 23.9% and 30.0% for the cells incubated with 20 μM of AIE-SRS-Mito for 30, 60 and 105 min, respectively. The ultimate high concentration within the cells was estimated to be 1.5, 2.0, 3.0 mM, respectively, covering >99.5% cell area. […] Such a high concentration is enough to cause the quenching of Rhodamine 123 in cells.

Series [4] can be described thus: Behaviour in DMSO-water mixtures (solubility in water). It counts as physicochemical. To be noted: aggregation/precipitation above 70 vol % water, 10 μM. From the text:
Then AIE-SRS-Mito was studied in DMSO-water mixtures with different water fractions. As shown in FIGS. 1C-1D, the emission peak intensity was decreased with the increase of water fraction from 0 to 70 vol % due the quenching effect of the highly polar water. […] This is a typical AIE phenomenon, as the free intramolecular rotations of the excited molecules were restricted upon aggregation, thus blocking the non-radiative decays and favoring the radiative decay. Only a slight red-shift in peak wavelength was observed and this should be attributed to the increased solution polarity by increasing water fraction. The AIE feature and TICT effect upon excitation were further verified by the theoretical calculations (FIGS. 2A-2C).

Series [5] has as its system HeLa cells. As to the kind of experiment: SRS imaging in live cells. It counts as cell-based. To be noted: 5 μM for 60 min, staining much shorter than EdU. The method, then: SRS imaging was conducted with live HeLa cells to validate a newly built SRS imaging system. The DNA of HeLa cells were pre-labeled with EdU by incubation with 100 μM of EdU in culture medium for 22 hours to ensure sufficient cell-uptake. FIGS. 7A-7D show the distributions of protein, lipid, cytochrome c and DNA in HeLa cells at 2950 cm^−1, 2845 cm^−1, 752 cm^−1, and 2125 cm^−1, respectively.
Due to the high Raman signal (RIE=6) and mitochondria targeting of AIE-SRS-Mito, AIE-SRS-Mito can serve as a mitochondrial probe for Raman microscopy. In previous reports, cytochrome c, an endogenous protein abundant in the mitochondria membrane, was used for visualization of the mitochondria. However, compared to the unclear and low-contrast image of mitochondria by cytochrome c (752 cm^−1, FIG. 7C), the SRS image of mitochondria in HeLa cells were obtained at 2223 cm^−1 with much more clear reticulum-like structures after incubated with 5 μM of AIE-SRS-Mito for 60 min (FIGS. 8A and 8C). Meanwhile, the nuclei of the Hela cells were prelabeled with EdU and imaged at 2125 cm^−1 (FIGS. 8B and 8D).

As to `CC[n+]1ccc(-c2ccc(/C(C#N)=C/c3ccc(C#Cc4ccccc4)cc3)cc2)cc1` [AIE-SRS-Mito], the IC50 in the series on HeLa cells [1] (Homo sapiens, incubation for 24 hours, concentrations 0 to 40 μM, FIG. 4E, read-out: half maximal inhibitory concentration (IC50) of cell viability) is ~7 µM. Further, the cell viability entry with HeLa cells [1] (treatment with <40 μM for <40 min, then fresh medium and further 24 hours) is reported as “over 70%”. For the same compound, the “mitochondrial selectivity (overlap with Mitotracker Red FM fluorescence)” value in the series with HeLa cells [2] (HeLa cells co-stained, 5 μM probe and 100 nM MTR) is “good mitochondrial selectivity”. Further, the cell permeability result with HeLa cells [2] (HeLa cells, 5 μM, fluorescence imaging, compared to synthetic precursors) is recorded as “good cell permeability”; in the series with HeLa cells [5], “good cell permeability”. Further, the “dye concentration in mitochondria matrix tolerated by cells” value with HeLa cells [3] (HeLa cells, with moderate cell viability) is “up to 3.0 mM”. The “percentage of high concentration region (>0.5 mM)” value is on record as 16.7% in the series on HeLa cells [3] (HeLa, 30 min); 23.9% in the series with HeLa cells [3] (HeLa, 60 min); 30.0% in the series with HeLa cells [3] (HeLa, 105 min). Further, the “ultimate high concentration within the cells” value in the series with HeLa cells [3] (HeLa, 30 min) amounted to 1.5 mM; in the series on HeLa cells [3] (HeLa, 60 min), 2.0 mM; in the series with HeLa cells [3] (HeLa, 105 min), 3.0 mM. Further, the “local concentration relative to incubation concentration” value in the series on HeLa cells [3] (HeLa, incubation concentration 20 μM, 30 min) is 75 folds. Further, the “local concentration within a cell” value in the series with HeLa cells [3] (single HeLa cell, 20 μM for 30 min, FIG. 10D) is “up to 1.5 mM”. Besides, in series [4], the solubility in water entry is recorded as “poor solubility”.

Source of the values: patent publication US11320428B2, “Probe for dual-mode bio-imaging” (THE HONG KONG UNIVERSITY OF SCIENCE AND TECHNOLOGY, priority 2017, dated 2022).
